# Experimental data from US8304440B2, “Combination of a bis-thiazolium salt or a precursor thereof and artemisinin or a derivative thereof for treating acute malaria” (Sanofi, priority 2008, dated 2012).
# System: Plasmodium vinckei petteri (strain 279 BY)
# Experiment: In vivo measurement of the antimalarial activity in mice infected with Plasmodium vinckei petteri (4-day ip treatment)
# Parameters: species or system Plasmodium vinckei petteri in female Swiss mice
# Text: • ED50=dose in mg/kg/day which brings about a 50% decrease in parasitaemia, observed in the infected mice, • ED90=dose in mg/kg/day which brings about a 90% decrease in parasitaemia, observed in the infected mice, • ip=intraperitoneal administration, • iv=intravenous administration, • ir=intrarectal administration.
# On day 0 (D0), female “Swiss” mice (OF1, 22-26 g) (Charles River Laboratories France, 59 rue de la Paix, 76410 Saint-Aubin-les-Elbeuf) are inoculated, by iv injection in the caudal vein, with 10^8 parasitized erythrocytes suspended in 200 μl of NaCl (0.9%). The parasites used are of Plasmodium vinckei petteri type (strain 279 BY, supplied by Dr. I Landau, Paris, France).
# The injection of 10^8 parasitized erythrocytes results, at day 1 (D1), in a parasitemia level of between 5% and 10% (7.2%±0.2%). The Plasmodium vinckei petteri strain is maintained by weekly infection in mice with 10^7 to 10^8 parasitized erythrocytes suspended in a saline phosphate buffer (0.9%) (infection by intraperitoneal administration).
# The products are dissolved in a 0.3M phosphate buffer (pH=8.1). The final concentration of the T3 solution is between 40 and 200 mg/l depending on the dose. The final concentration of the artesunate solution is between 100 and 500 mg/l depending on the dose. The products are administered ip. The administration volume is of the order of 100 μl, but depends on the weight of the mouse.
# The mice are treated once a day for 4 days, on days D1, D2, D3 and D4 (Peters, W., J. H. Portus, and B. L. Robinson. 1975. The chemotherapy of rodent malaria. XXII. The value of drug-resistant strains of P. berghei in screening for blood schizonticidal activity. Ann. Trop. Med. Parasitol. 69:155-171; and: Ancelin M L, Calas M., Bonhoure A., Herbute S, and Vial H., In vivo antimalarial activity of mono and bis quaternary ammonium salts interfering with Plasmodium phospholipid metabolism. Antimicrob. Agents Chemother., 2003, 47, 2598-2605). Four mice are used per dose.
# The animal is given, by ip administration, according to the case, T3, artesunate or the mixture of the two active ingredients solubilized.
# At the 5th day, a few drops of blood are taken from the tail of the mouse in order to determine the parasitemia by FACS (fluorescence-activated cell sorter) and to perform a blood smear. The parasitemia is first determined by FACS on 20 000 cells. The red blood cells taken for the FACS are fixed with glutaraldehyde and then labeled with a fluorochrome (YOYO1®) which labels DNA and therefore only the parasitized cells (Barkan, D., Ginsburg, H., and Golenser, J. 2000. Optimisation of flow cytometric measurement of parasitaemia in plasmodium-infected mice. Int. J. Parasitol. 30: 649-653). The parasitemias below 15% are subsequently recounted on smears. The smears are fixed with methanol and then stained with Giemsa stain. The number of parasitized blood cells is counted under a microscope. The parasitemia is expressed as percentage of infected erythrocytes present in the specimen, on a sample of 2000 cells. The ED50 and ED90 values are determined at D5. The parasitemia is determined from the 1st to the 10th day of treatment, and then at the 15th, 22nd and 47th days.
# The curative dose is the dose of product which ensures the survival of the entire treated batch of animals after one month.
# 0% inhibition corresponds to the mean of the parasitemias observed in the nontreated, infected mice. 100% inhibition corresponds to a very weak or null parasitemia, below 0.01%. The ED50 values are determined by linear interpolation of the dose-response curve represented in logarithm of concentrations.
smiles,measurement,setting,value
"C[C@H]1[C@H](OC(=O)CCC(=O)O)O[C@@H]2O[C@@]3(C)CC[C@H]4[C@H](C)CC[C@@H]1[C@@]24OO3 [artesunate, reference compound]",parasitaemia D5,"Artesunate 2.5 mg/kg/d alone, ip D1-D4, D5",53.20%
same,parasitaemia D1,"Artesunate 2.5 mg/kg/d alone, ip, D1 (first treatment day)",7.00%
same,parasitaemia D2,"Artesunate 2.5 mg/kg/d alone, ip, D2 (24 h after first administration)",32.90%
same,activity on the parasitemia at 4 days,artesunate 0.5 mg/kg/d,completely inactive
same,complete recovery after one month,artesunate alone 2.5 mg/kg/day,does not
same,effect on parasitemia on the first day and following days,"artesunate alone, at the doses tested, ip (FIG. 1)",does not reduce the parasitemia
same,ED50,"dose giving 50% decrease in parasitaemia, ip once a day D1-D4, determined at D5, compound alone",>2.5 mg/kg/day
